In patent publication US20040103453A1, “Lipoxygenase genes, promoters, transit peptides and proteins thereof” (priority 2000, published 2004):
“Also recorded” adds a separate entry of the source.

Assays:
RCI-1 transcripts = assay: RNA gel blot (Northern) analysis of RCI-1 transcripts in treated rice leaves; type: in vivo, Oryza sativa cv. Kusabue; details: for RCI-1 transcript (mRNA) accumulation: RNA from chemically treated rice leaves, INA and BTH sprayed onto leaves, probenazole by soil drench
L-2 transcripts = assay: RNA gel blot probed with rice LOX cDNA L-2; type: in vivo; details: RNA from treated rice plants
RLL2 transcripts = assay: RNA gel blot probed with rice LOX cDNA RLL2; type: in vivo; details: RNA from treated rice plants
[1] = tested on: lipoxygenase (LOX) enzyme activity in rice leaves; assay: LOX enzyme activity in BTH-treated rice leaves; type: in vivo, Oryza sativa cv. Kusabue; details: between 24 and 48 h after BTH treatment
rice blast disease = details: treatment of rice; cited from earlier work
[2] = tested on: lipoxygenase (LOX, linoleate:oxygen oxidoreductase, EC 1.13.11.12); details: treatment of rice; cited from earlier work
[3] = HPLC analysis of reaction products of recombinant RCI-1; details: linoleic acid or linolenic acid as substrate, 0.1 M Tris-HCl pH 8.8, 20 min, 30° C.
Procedure: Lipoxygenase activity is measured at 30° C. photospectrometrically at 234 nm using linoleic acid as a substrate and 5-20 μl from the recombinant RCI-1 enzyme extract (Bohland et al. (1997) Plant Physiol. 114, 679-685). For determination of the pH optimum, different buffers with overlapping pH ranges (pH 4-6: 0.1 M Na-acetate; pH 6-8: 0.1 M Na-phosphate; pH 8-10: 0.1 M Tris-HCl) are used. The molar extinction coefficient of the reaction product, 2.5×10^7 cm^−1 mol^−1, is used for the calculation of the enzyme activity. […] The products of the enzymatic activity of the RCI-1 protein are analyzed by HPLC (Bohland et al. (1997) Plant Physiol. 114, 679-685). Approximately 0.2 nkat enzyme activity obtained from recombinant RCI-1 protein is incubated with 50 μl substrate solution (10 μl of linoleic or α-linolenic acid, respectively; 20 μl ethanol, 20 μl H2O) in 2 ml 0.1 M Tris-HCl pH 8.8 for 20 min. at 30° C. The reaction is stopped by lowering the pH to 3.0 with diluted HCl, and the hydroperoxides are extracted with 1 ml of CHCl3 followed by two washes with water. […] Products are detected at 234 nm and standards are obtained from Biomol (Hamburg, Germany) or prepared from linoleic or α-linolenic acid by incubation with soybean lipoxygenase, respectively, as described (Bohland et al. (1997) Plant Physiol. 114, 679-685).

[4] = Photospectrometric lipoxygenase activity of recombinant RCI-1 enzyme extract; details: linoleic acid as substrate
Procedure: Production of recombinant RCI-1 protein is induced by addition of 1 mM IPTG (final concentration) to a 250 ml E. coli M15 culture grown to an OD600 of 1 and further incubation on a shaker overnight at 19° C. The cells are harvested by centrifugation (5000 g, 10 minutes) and resuspended in 5 ml lysis buffer (50 mM Na-phosphate buffer pH 7.5 containing 1 mg l-1 lysozyme). After a 30 minute incubation on ice, the lysate is centrifuged (12000 g, 15 minutes) and the pellet is transferred into a mortar and ground in extraction buffer (0.1 M K-phosphate buffer pH 7, 30 mg polyvinyl-poly-pyrrolidone, 1 mM EDTA). After centrifugation, the clear supernatant is used as an enzyme preparation for further biochemical analysis.
Lipoxygenase activity is measured at 30° C. photospectrometrically at 234 nm using linoleic acid as a substrate and 5-20 μl from the recombinant RCI-1 enzyme extract (Bohland et al. (1997) Plant Physiol. 114, 679-685). For determination of the pH optimum, different buffers with overlapping pH ranges (pH 4-6: 0.1 M Na-acetate; pH 6-8: 0.1 M Na-phosphate; pH 8-10: 0.1 M Tris-HCl) are used. The molar extinction coefficient of the reaction product, 2.5×10^7 cm^−1 mol^−1, is used for the calculation of the enzyme activity.

[5] = rice leaves treated with INA, time course, RNA gel blot

Molecule: CC/C=C\C[C@H]1C(=O)CC[C@@H]1CC(=O)O [jasmonic acid]
- RCI-1 transcript levels (RCI-1 transcripts; 7 to 12 h after spraying of a 1 mM solution onto rice leaves): strongly increase
- RCI-1 transcript (mRNA) accumulation (RCI-1 transcripts): strong hybridization signal

Molecule: O=C(O)c1cc(Cl)nc(Cl)c1 [INA, 2,6-dichloroisonicotinic acid]
- L-2 transcript accumulation (L-2 transcripts): do not accumulate
- RCI-1 transcript (mRNA) accumulation (RCI-1 transcripts): strong hybridization signal
- time after treatment at which RCI-1 transcripts reach maximal levels (RCI-1 transcripts; [5]): 24 to 48 h
- time after treatment at which RCI-1 transcripts start to accumulate (RCI-1 transcripts; [5]): 8 h
- RLL2 transcript accumulation (RLL2 transcripts): do not accumulate

Molecule: CSC(=O)c1cccc2nnsc12 [BTH, benzo(1,2,3)thiadiazole-7-carbothioic acid S-methyl ester]
- L-2 transcript accumulation (L-2 transcripts): do not accumulate
- LOX enzymatic activity in rice leaves [1]: significant increase
- RCI-1 transcript (mRNA) accumulation (RCI-1 transcripts): induces RCI1 transcript accumulation; also recorded: strong hybridization signal
- RLL2 transcript accumulation (RLL2 transcripts): do not accumulate

Molecule: C=CCOC1=NS(=O)(=O)c2ccccc21 [probenazole]
- L-2 transcript accumulation (L-2 transcripts): do not accumulate
- RCI-1 transcript (mRNA) accumulation (RCI-1 transcripts): induces RCI1 transcript accumulation; also recorded: strong hybridization signal
- time course of RCI-1 mRNA accumulation (RCI-1 transcripts; probenazole soil drench, compared with INA and BTH spraying): delayed time course
- RLL2 transcript accumulation (RLL2 transcripts): do not accumulate

Molecule: N#CCNC(=O)c1ccnc(Cl)c1 [N-cyanomethyl-2-chloroisonicotinamid]
- resistance inducing activity against rice blast disease (rice blast disease): good resistance inducing activity
- induction of the enzyme lipoxygenase [2]: induced the enzyme lipoxygenase

B1: RCI-1: rice lipoxygenase protein of 922 amino acids (SEQ ID NO:7) encoded by RCI-1 cDNA, expressed recombinantly in E. coli (protein, listed as Oryza sativa)
chain: MLTATQTLAPAVLSRSHGAPSSFSSQPRRTAAAASRVSCTRVGALSEVVNGELVVGDQEQTTDDLLTRHKNVVADYTLSATVTVSLKQDDSTPQKVADMVNRDWLFLDFFSSHIEGMHTEPQLARYSHMDGKGSFIYEASFSIPSSLDAVGAVQVVNRYSSEVYISDIDVHLCGGRHQWTDITFHCNSWIDYNPNDQRFFFPLKSYLPSQTPRGVKNLRKEELRAIRGDGRGERKEWERIYDYDVYNDLGDPDNDPATRRPVLGGRGRPYPRRCRTGRRRCRTDPSSESPPAKDGAGIYVPRDEAFTERKAGAFATKKALSALSAFTTAQRVSGDRRRGFPSLAAIDALYEDGYKNRPSSSQQEADNLEGYFREVLQKQVKLLLKGEKEEFKEELRKVFKFQTPEIHDKDKLAWFRDEEFARQTLAGMNPLSIQLVRDTDFPIFSKLDEETYGPGDSLITKELIEEQINGVMTAEEAVEKKKLFMLDYHDVLLPFVHAVRELDDTTLYASRTLFFLTEDGTLRPIAIELTRPKSPNTPQWRQVFTPGSSVAASWLWQLAKTHVLAHDTGYHQLVSHWLRTHCCVEPYVIAANRRLSQMHPIYRLLHPHFRFTMEINAQARGMLINANGIIESAFAPGKLCMELSSAVYDKFWRFDMEALPADLIRRGMAIECEDGKLELTIEDYPYANDGLLIWDSIKEWVSDYVNHYYQLASDIHMDKELQGWWNEVRTKGHPDKEEGWPELNCHGSLVEVLTTIIWVASGHHAAVNFGQYPYAGYFPNRPTIARRNMPTEGQACSHDGMQPTFVEDPVRVLLDTFPSQYQTTLVLPVLNLLSSHSPGEEYMGTHAESAWMADREVRAAFGRFNERMMSIAEMIDCRNKDPERKNRQGPGVVPYVLLKPSYGDPKDMTSVMEMGIPNSISI
- reaction product (9S)-hydroperoxy-(10E,12Z,15Z) octadecatrienoic acid (9-HPOD) [3]: only detected in minor amounts
- reaction product (13S)-hydroperoxy-(9Z,11E,15Z)-octadecatrienoic acid (13-HPOD) [3]: predominant product
- LOX activity of crude E. coli extract ([4]; 30° C., 234 nm, control extracts no detectable LOX activity): increased LOX activity
- pH of maximal LOX activity ([4]; buffers pH 4-10): 8 to 9 pH
